Data: patent publication US9676756B2 (PORTOLA PHARMACEUTICALS, INC., priority 2012, dated 2017)

How the values were obtained:
Src kinsase = conditions: cited from earlier work
[1] = tested on: refractory NHL and chronic lymphocytic leukemia; conditions: phase II; cited from earlier work
[2] = tested on: FcεR1 and BCR induced Syk activation; conditions: cited from earlier work
[3] = tested on: lymphoma cell lines and primary human lymphoma samples; conditions: cited from earlier work
JAK kinases = conditions: cited from earlier work
[4] = target: T1, full length active recombinant SYK enzyme (Homo sapiens, UniProt P43405); assay: SYK tyrosine phosphorylation activity, LANCE TR-FRET kinase assay; format: biochemical; conditions: 1 nM SYK, 100 μM ATP, 1 hour at room temperature
T1 construct: full length active recombinant SYK enzyme (Millipore, CA); purchased Millipore
Procedure, shortened: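 Full-length active SYK (1 nM) phosphorylates 550 nM biotinylated substrate with 100 μM ATP in Tris pH 7.5, MgCl2, DTT, 3% DMSO, 1 h at room temperature. EDTA stop with Eu-anti-phosphotyrosine/SA-APC TR-FRET detection, 1 h. IC50 by non-linear regression.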

JAK3 = target: T2, JAK3 (Homo sapiens, UniProt P52333); assay: JAK tyrosine phosphorylation activity, Z'-LYTE FRET kinase assay; format: biochemical; conditions: catalytic domain recombinant kinase, Tyr6 peptide
T2 construct: 5 μl of catalytic domain recombinant Kinase enzyme+Tyr peptide substrate (Invitrogen, CA); purchased Invitrogen
T2 sequence (P52333 822-1111 limits assumed): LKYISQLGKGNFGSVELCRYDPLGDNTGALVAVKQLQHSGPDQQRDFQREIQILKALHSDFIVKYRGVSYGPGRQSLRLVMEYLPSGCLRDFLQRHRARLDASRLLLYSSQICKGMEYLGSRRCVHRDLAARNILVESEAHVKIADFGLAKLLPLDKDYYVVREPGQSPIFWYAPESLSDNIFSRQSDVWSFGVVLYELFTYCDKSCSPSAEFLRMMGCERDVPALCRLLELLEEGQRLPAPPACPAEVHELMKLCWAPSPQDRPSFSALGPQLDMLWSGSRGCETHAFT
Procedure, shortened: (§1)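 Catalytic-domain recombinant kinases with Tyr6 peptide substrate and ATP, 1% DMSO, reacted 1 h at room temperature, then protease development 1 h. FRET read at ex 400 nm, em 445/520 nm; inhibition from percent substrate phosphorylation versus no-inhibitor control, IC50 by 4-parameter logistic fit.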

JAK2 = target: T3, JAK2 (Homo sapiens, UniProt O60674); assay: as above; format: biochemical; conditions: catalytic domain recombinant kinase, Tyr6 peptide
T3 construct: 5 μl of catalytic domain recombinant Kinase enzyme+Tyr peptide substrate (Invitrogen, CA); purchased Invitrogen
T3 sequence (O60674 849-1124 limits assumed): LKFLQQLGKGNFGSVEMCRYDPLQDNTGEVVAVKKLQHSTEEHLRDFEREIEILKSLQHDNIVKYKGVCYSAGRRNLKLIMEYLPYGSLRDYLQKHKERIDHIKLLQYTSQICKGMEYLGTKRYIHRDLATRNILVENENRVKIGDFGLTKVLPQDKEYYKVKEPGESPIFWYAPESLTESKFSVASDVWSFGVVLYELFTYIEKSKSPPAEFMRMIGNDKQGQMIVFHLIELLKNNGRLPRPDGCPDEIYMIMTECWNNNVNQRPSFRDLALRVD
Procedure, shortened: as §1

JAK1 = target: T4, JAK1 (Homo sapiens, UniProt P23458); assay: as above; format: biochemical; conditions: catalytic domain recombinant kinase, Tyr6 peptide
T4 construct: 5 μl of catalytic domain recombinant Kinase enzyme+Tyr peptide substrate (Invitrogen, CA); purchased Invitrogen
T4 sequence (P23458 875-1153 limits assumed): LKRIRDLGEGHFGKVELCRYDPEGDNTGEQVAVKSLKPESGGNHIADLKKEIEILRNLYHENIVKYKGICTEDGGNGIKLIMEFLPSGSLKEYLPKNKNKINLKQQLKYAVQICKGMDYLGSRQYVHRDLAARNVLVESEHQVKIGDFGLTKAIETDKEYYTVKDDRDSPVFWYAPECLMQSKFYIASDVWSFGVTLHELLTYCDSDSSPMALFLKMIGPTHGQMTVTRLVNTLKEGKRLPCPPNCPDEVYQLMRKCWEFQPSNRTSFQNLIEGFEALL
Procedure, shortened: as §1

IC50 [4] | JAK3 IC50 potency class (JAK3) | JAK2 IC50 potency class (JAK2) | JAK1 IC50 potency class (JAK1) | SMILES | activity against Src kinase (Src kinsase) | clinical trial outcome [1] | inhibition of ITAM signaling [2] | effect on BCR signaling ([3]; lymphoma cell lines and primary human lymphoma samples) | apoptosis ([3]; lymphoma cell lines) | activity against JAK kinases (JAK kinases)
 |  |  |  | COc1cc(Nc2ncc(F)c(Nc3ccc4c(n3)NC(=O)C(C)(C)O4)n2)cc(OC)c1OC [Compound R406] | not against | favorable results | inhibit ITAM signaling | attenuates BCR signaling | resulting in apoptosis | active
++ (1.0 uM<IC50<0.10 uM) | +++ (0.10 uM<IC50<0.01 uM) | +++ (0.10 uM<IC50<0.01 uM) | ++ (1.0 uM<IC50<0.10 uM) | CS(=O)(=O)N1CCN(c2c(F)cc(Nc3ncc(C(N)=O)c(NC4CC4)n3)cc2F)CC1 [Compound 49, 4-(cyclopropylamino)-2-((3,5-difluoro-4-(4-(methylsulfonyl)piperazin-1-yl)phenyl)amino)pyrimidine-5-carboxamide] |  |  |  |  |  | 
+++ (0.10 uM<IC50<0.01 uM) | ++++ (0.01 uM<IC50<0.001 uM) | ++++ (0.01 uM<IC50<0.001 uM) | +++ (0.10 uM<IC50<0.01 uM) | NC(=O)c1cnc(Nc2ccc(C3CCN(C4CCOCC4)CC3)cc2)nc1NC1CC1 [Compound 14, 4-(cyclopropylamino)-2-((4-(1-(tetrahydro-2H-pyran-4-yl)piperidin-4-yl)phenyl)amino)pyrimidine-5-carboxamide] |  |  |  |  |  | 
+++ (0.10 uM<IC50<0.01 uM) | ++++ (0.01 uM<IC50<0.001 uM) | ++++ (0.01 uM<IC50<0.001 uM) | +++ (0.10 uM<IC50<0.01 uM) | CCS(=O)(=O)N1CCC(c2ccc(Nc3ncc(C(N)=O)c(NC4CC4)n3)cc2)CC1 [Compound 1, 4-(cyclopropylamino)-2-((4-(1-(ethylsulfonyl)piperidin-4-yl)phenyl)amino)pyrimidine-5-carboxamide] |  |  |  |  |  | 
